Results reported in patent US8969297B2, “Methods and compositions for the induction of hypothermia” (priority 2009, dated 2015).

Legend:
[1] = tested on: asphyxial cardiac arrest rat model; assay: Survival in rat outcome model of asphyxial cardiac arrest; assay type: in vivo; conditions: for Survival days: individual rats; for effect on mortality / neurological deficit score: compound alone under normothermic conditions
Method: (§1) The outcome model of asphyxial cardiac arrest in rats was used for these studies and has been described previously (Katz et al. (1995) J Cereb Blood Flow Metab 15:1032-1039). Briefly, rats were anesthetized with 4% isoflurane, intubated and mechanically ventilated, anesthesia was titrated and vessel catheters inserted. Cardiac arrest was induced by apneic asphyxia with chemical paralysis (vecuronium 2 mg/kg) and discontinuation of ventilation. After 10 minutes of asphyxial cardiac arrest, rats were resuscitated with mechanical ventilation, 100% O2, epinephrine (0.005 mg/kg) and chest compressions. Rats were extubated two hours after resuscitation and placed in a humidity and temperature controlled incubator. Rats were sacrificed by an overdose (5%) of inhaled isoflurane and then perfusion fixed with 100 ml of 4% paraformaldehyde at a perfusion pressure of 100 mmHg. Multiple coronal sections (10 μm thickness) of the brain (Paxinos et al. (1995) J Neurosci Methods 13:139-143) were cryosectioned for future immunostaining and histological evaluation.
(§2) Rats underwent ten minutes of asphyxial cardiac arrest and resuscitation. Five minutes after the return of spontaneous circulation (ROSC), rats were administered 15 ml/kg of iced normal (0.9%) saline (5° C.) (forced hypothermia) or half of the indicated treatment (at room temperature, 21° C.) intravenously over 20 minutes. The first infusion was followed immediately by a second 20-minutee infusion (15 ml/kg) with iced saline (5° C.) for the forced hypothermia group or the second half of the indicated treatment (at 21° C.).
(§3) The rat outcome model of asphyxial cardiac arrest was used to test each of the components of the cocktail to determine the effects of the components on NDS and performance in the Morris Water Maze. Rats undergoing forced hypothermia and rats maintained under normothermic conditions (with 0.5 U/kg vasopressin administered) served as controls.

[2] = tested on: asphyxial cardiac arrest rat model; assay: Neurological deficit score (NDS) in rat model of asphyxial cardiac arrest; assay type: in vivo; conditions: normothermic conditions; for NDS 72 hours after resuscitation: ethanol alone or vasopressin alone
Method: as §1, with “evaluation. […]” for “evaluation.”
The total ND score is composed of 5 components as outlined below. A normal rat has a ND score of 0% and a brain-dead rat has an ND score of 100% (Katz et al. (1995) J Cereb Blood Flow Metab 15:1032-1039).
as §2, with “Five” for “Rats underwent ten minutes of asphyxial cardiac arrest and resuscitation. Five”
as §3, with “controls. Raw survival and NDS data is shown in Table 1 and Table 2 provides a summary of the survival and NDS data.” for “controls.”

[3] = tested on: rats; conditions: ethanol alone
Method: as §2

[4] = Gable (2004); cited from earlier work
[5] = 20 mcg/kg, normothermic conditions
[6] = 0.005 mg/kg, normothermic conditions
[7] = 0.8 g/kg, normothermic conditions
[8] = 1 mg/kg, normothermic conditions
[9] = 0.25 U/kg, normothermic conditions

NCCc1ccc(O)c(O)c1 [Dopamine, dopamine]
Average Survival days [1, 5]: 1 days | Survival days [1, 5]: 1 days

CNC[C@H](O)c1ccc(O)c(O)c1 [Epinephrine, epinephrine]
Average Survival days [1, 6]: 1 days | Survival days [1, 6]: 1 days | Average Survival days ([1]; 0.01 mg/kg, normothermic conditions): 1 days

CCO [Ethanol, ethanol]
Average Survival days ([1]; 0.5 g/kg, normothermic conditions): 1 days | Average Survival days [1, 7]: 1 days | Survival days [1, 7]: 1 days | Average Survival days ([1]; 1 g/kg, normothermic conditions): 1.5 days | Average Survival days ([1]; 1.5 g/kg, normothermic conditions): 3 days | Average Survival days ([1]; 2 g/kg, normothermic conditions): 3.33 days | Average Survival days ([1]; 2.5 g/kg, normothermic conditions): 1 days | Average Survival days ([1]; 3 g/kg, normothermic conditions): 1 days | effect on mortality / neurological deficit score [1]: mild reduction in mortality | NDS day 3, median neurological deficit score ([2]; 1.5 g/kg): NA, (36.5) | NDS day 3, median neurological deficit score ([2]; 2 g/kg): (31) | neurological deficit score at 72 hours after resuscitation ([2]; ethanol alone 1 g/kg, 1.5 g/kg and 2 g/kg): reduced the neurological deficit score | NDS 72 hours after resuscitation [2]: 31 | minimum dose able to reliably induce hypothermia [3]: about 0.75 g/kg | dose at which the hypothermic effect plateaus ([3]; higher doses do not further lower the temperature): 3000 mg/kg | temperature reached ([3]; maintained during infusion): about 33 °C | acute ingestion considered toxic [4]: above 10 g/kg

CCN(CC)CC(=O)Nc1c(C)cccc1C [Lidocaine, 2-(diethylamino)-N-(2,6-dimethylphenyl)acetamide]
Average Survival days [1, 8]: 1 days | Survival days [1, 8]: 1 days

Cc1[nH]c(=O)c(C#N)cc1-c1ccncc1 [Milrinone]
Average Survival days ([1]; 0.3 mg/kg, normothermic conditions): 1 days

CC(=O)N[C@@H](CS)C(=O)O [N-Acetylcysteine, (2R)-2-acetamido-3-sulfanylpropanoic acid]
Average Survival days ([1]; 50 mg/kg, normothermic conditions): 1.5 days | Average Survival days ([1]; 150 mg/kg, normothermic conditions): 3 days | Average Survival days ([1]; 300 mg/kg, normothermic conditions): 2.5 days | NDS day 3, median neurological deficit score ([2]; 150 mg/kg): (38) | NDS day 3, median neurological deficit score ([2]; 300 mg/kg): NA, (40) | NDS day 3 ([2]; 300 mg/kg, individual rats): NA, 40

NC(=O)CC[C@@H]1NC(=O)[C@H](Cc2ccccc2)NC(=O)[C@H](Cc2ccc(O)cc2)NC(=O)[C@@H](N)CSSC[C@@H](C(=O)N2CCC[C@H]2C(=O)N[C@@H](CCCN=C(N)N)C(=O)NCC(N)=O)NC(=O)[C@H](CC(N)=O)NC1=O [Vasopressin]
Average Survival days ([1]; 0.5 U/kg, normothermic conditions): 5 days | Average Survival days ([1]; 0.75 U/kg, normothermic conditions): 3 days | effect on mortality / neurological deficit score [1]: minimal effect on mortality or the neurological deficit score | enhancement of survival ([1]; vasopressin alone, normothermic conditions): approximately 3 fold | NDS day 3, median neurological deficit score ([2]; 0.5 U/kg): (36) | NDS day 7 ([2]; 0.5 U/kg, individual rats): NA, NA, 22 | NDS day 7 ([2]; 0.5 U/kg, single surviving rat (summary table)): NA, NA, 22 | NDS day 3, median neurological deficit score ([2]; 0.75 U/kg): (30) | NDS 72 hours after resuscitation [2]: 30 | neurological deficits 72 hours after resuscitation ([2]; vasopressin alone): reduced neurological deficits

Insulin: antihyperglycemic compound
Average Survival days [1, 9]: 2 days | Survival days [1, 9]: 2 days
